Data reported in the kinase profiling compilation of Christmann-Franck et al. (2016).

Assays:
Experiment in all cases: Caliper, Mobility shift assay off-chip
[1] = test system: ABL1 (human), P00519 [H396P]
[2] = test system: ABL1 (human), P00519 [T315I]
AURKB (human) = AURKB (human) (UniProt Q96GD4)
BRSK2 (human) = BRSK2 (human) (UniProt Q8IWQ3)
CAMK4 (human) = CAMK4 (human) (UniProt Q16566)
CHEK1 (human) = CHEK1 (human) (UniProt O14757)
DYRK1A (human) = DYRK1A (human) (UniProt Q13627)
FGFR2 (human) = FGFR2 (human) (UniProt P21802)
[3] = test system: FGFR2 (human), P21802 [N549H]
GSK3B (human) = GSK3B (human) (UniProt P49841)
HCK (human) = HCK (human) (UniProt P08631)
IKBKB (human) = IKBKB (human) (UniProt O14920)
INSR (human) = INSR (human) (UniProt P06213)
IRAK4 (human) = IRAK4 (human) (UniProt Q9NWZ3)
KDR (human) = KDR (human) (UniProt P35968)
LCK (human) = LCK (human) (UniProt P06239)
MAP4K4 (human) = MAP4K4 (human) (UniProt O95819)
MAPK11 (human) = MAPK11 (human) (UniProt Q15759)
NEK2 (human) = NEK2 (human) (UniProt P51955)
PAK2 (human) = PAK2 (human) (UniProt Q13177)
PDGFRA (human) = PDGFRA (human) (UniProt P16234)
PIM1 (human) = PIM1 (human) (UniProt P11309)
PRKACA (human) = PRKACA (human) (UniProt P17612)
PRKCB1 (human) = PRKCB1 (human) (UniProt P05771)
PRKCE (human) = PRKCE (human) (UniProt Q02156)
PRKD2 (human) = PRKD2 (human) (UniProt Q9BZL6)
RAF1 (human) = RAF1 (human) (UniProt P04049)
ROCK2 (human) = ROCK2 (human) (UniProt O75116)
RPS6KA1 KD1 KD2 (human) = RPS6KA1 KD1 KD2 (human) (UniProt Q15418)
RPS6KA3 KD1 KD2 (human) = RPS6KA3 KD1 KD2 (human) (UniProt P51812)
SRC (human) = SRC (human) (UniProt P12931)
SYK (human) = SYK (human) (UniProt P43405)
TSSK1B (human) = TSSK1B (human) (UniProt Q9BXA7)
TSSK2 (human) = TSSK2 (human) (UniProt Q96PF2)

Chain of NEK2 (human) (P51955 whole entry, looked up): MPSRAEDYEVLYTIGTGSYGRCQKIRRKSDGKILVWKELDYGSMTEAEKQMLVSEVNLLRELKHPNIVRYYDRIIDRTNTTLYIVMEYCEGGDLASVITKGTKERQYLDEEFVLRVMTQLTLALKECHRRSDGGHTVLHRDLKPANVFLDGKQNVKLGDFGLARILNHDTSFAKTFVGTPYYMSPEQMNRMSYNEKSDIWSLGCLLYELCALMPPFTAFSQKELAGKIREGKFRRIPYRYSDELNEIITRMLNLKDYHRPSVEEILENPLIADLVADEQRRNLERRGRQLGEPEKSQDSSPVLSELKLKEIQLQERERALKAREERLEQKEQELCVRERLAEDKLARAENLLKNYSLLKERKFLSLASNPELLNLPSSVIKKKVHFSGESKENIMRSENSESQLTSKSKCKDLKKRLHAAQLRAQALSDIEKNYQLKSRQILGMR
Chain of PAK2 (human) (Q13177 whole entry, looked up): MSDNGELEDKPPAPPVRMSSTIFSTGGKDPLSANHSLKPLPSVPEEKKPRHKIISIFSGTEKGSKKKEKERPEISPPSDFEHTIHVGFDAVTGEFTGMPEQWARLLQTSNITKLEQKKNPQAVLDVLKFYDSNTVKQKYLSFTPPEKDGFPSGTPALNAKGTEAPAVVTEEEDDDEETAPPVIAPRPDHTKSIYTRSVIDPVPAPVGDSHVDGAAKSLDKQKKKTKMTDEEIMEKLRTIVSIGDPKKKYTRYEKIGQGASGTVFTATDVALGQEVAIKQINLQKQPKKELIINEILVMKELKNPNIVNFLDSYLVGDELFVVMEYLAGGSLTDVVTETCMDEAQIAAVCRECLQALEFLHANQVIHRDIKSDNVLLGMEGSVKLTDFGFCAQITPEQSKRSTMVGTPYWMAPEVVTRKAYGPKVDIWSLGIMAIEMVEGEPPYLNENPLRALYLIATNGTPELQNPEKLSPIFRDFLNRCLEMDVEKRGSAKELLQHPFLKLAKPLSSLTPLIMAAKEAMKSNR
Chain of IKBKB (human) (O14920 whole entry, looked up): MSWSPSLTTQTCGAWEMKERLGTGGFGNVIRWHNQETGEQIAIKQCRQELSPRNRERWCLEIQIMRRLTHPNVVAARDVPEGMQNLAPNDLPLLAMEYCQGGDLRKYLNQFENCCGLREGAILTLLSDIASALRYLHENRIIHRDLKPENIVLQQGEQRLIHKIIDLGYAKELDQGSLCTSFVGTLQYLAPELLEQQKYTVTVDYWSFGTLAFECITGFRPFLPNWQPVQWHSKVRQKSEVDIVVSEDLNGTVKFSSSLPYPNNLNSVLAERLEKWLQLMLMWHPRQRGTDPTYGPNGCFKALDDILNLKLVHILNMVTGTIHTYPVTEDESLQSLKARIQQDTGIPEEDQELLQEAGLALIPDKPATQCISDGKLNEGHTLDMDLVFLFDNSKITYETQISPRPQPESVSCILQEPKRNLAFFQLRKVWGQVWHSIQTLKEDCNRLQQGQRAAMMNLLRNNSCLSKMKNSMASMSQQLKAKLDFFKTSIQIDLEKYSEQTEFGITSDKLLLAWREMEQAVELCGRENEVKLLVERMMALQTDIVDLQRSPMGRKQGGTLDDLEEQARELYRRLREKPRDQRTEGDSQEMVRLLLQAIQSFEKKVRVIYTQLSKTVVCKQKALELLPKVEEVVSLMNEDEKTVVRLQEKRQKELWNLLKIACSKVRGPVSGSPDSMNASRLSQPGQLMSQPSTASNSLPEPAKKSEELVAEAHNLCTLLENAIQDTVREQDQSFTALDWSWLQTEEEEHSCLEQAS
Chain of FGFR2 (human) (P21802 whole entry, looked up): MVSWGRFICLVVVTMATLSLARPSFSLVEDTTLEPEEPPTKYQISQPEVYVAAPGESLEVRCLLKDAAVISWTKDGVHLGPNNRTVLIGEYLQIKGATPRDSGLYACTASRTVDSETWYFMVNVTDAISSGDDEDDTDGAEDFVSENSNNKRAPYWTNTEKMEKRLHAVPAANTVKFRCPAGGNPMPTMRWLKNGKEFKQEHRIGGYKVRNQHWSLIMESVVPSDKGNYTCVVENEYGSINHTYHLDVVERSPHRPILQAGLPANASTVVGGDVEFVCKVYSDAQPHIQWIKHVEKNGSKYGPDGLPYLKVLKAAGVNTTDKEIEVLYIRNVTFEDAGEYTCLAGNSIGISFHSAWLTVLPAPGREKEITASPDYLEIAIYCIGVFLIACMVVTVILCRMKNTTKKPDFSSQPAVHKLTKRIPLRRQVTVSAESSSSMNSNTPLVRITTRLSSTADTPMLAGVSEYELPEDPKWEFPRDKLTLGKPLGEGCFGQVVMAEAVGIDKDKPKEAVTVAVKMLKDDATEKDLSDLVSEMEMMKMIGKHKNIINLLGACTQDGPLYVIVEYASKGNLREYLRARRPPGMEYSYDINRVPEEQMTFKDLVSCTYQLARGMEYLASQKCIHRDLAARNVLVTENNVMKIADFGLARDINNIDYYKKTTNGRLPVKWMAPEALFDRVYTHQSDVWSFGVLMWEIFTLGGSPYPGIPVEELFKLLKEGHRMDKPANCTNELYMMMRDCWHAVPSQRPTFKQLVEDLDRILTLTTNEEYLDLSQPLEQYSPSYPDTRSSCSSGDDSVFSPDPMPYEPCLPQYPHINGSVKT
Chain of KDR (human) (P35968 whole entry, looked up): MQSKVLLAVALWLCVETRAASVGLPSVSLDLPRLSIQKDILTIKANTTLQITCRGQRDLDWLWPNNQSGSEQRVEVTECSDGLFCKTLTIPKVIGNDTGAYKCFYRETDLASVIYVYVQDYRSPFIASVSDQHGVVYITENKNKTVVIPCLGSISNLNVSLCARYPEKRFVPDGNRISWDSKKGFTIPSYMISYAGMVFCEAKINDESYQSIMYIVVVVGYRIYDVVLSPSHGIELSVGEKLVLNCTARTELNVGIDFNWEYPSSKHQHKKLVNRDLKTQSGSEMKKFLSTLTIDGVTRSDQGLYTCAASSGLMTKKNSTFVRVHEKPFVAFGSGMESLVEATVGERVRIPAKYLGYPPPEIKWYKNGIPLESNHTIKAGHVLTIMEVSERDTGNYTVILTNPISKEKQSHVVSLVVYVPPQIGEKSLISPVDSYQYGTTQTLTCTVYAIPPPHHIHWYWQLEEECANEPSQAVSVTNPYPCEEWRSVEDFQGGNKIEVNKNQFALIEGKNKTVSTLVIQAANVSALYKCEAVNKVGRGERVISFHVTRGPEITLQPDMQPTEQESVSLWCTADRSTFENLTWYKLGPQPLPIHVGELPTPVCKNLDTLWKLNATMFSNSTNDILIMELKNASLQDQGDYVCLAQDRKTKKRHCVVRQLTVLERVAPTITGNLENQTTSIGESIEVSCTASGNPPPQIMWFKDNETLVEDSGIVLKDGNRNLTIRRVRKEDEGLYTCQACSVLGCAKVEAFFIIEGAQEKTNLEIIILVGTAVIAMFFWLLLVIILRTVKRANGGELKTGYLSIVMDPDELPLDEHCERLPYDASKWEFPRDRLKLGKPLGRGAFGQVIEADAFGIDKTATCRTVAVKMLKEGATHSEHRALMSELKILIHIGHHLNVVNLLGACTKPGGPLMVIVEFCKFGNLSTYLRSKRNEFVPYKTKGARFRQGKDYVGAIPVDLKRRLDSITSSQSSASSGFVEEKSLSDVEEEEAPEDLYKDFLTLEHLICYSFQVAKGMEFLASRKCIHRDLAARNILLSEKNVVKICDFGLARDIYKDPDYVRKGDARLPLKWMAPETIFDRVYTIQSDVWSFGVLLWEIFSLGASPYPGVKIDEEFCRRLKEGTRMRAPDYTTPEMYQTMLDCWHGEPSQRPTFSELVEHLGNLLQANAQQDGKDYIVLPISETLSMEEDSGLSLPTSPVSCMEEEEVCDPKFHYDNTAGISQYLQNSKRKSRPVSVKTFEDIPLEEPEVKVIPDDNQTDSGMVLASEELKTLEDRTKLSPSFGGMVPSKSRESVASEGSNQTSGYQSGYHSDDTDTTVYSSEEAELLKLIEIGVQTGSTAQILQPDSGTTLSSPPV
Chain of AURKB (human) (Q96GD4 whole entry, looked up): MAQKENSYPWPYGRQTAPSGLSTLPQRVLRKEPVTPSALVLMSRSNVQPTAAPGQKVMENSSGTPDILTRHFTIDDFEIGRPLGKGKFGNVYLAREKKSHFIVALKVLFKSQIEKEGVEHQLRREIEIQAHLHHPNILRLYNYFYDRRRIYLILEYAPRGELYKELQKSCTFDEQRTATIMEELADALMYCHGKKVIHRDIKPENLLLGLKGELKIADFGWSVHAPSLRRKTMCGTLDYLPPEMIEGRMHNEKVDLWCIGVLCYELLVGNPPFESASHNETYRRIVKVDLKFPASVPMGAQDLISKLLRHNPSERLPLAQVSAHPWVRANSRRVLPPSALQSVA
Chain of FGFR2 (human), P21802 [N549H] (P21802 whole entry N549H, looked up): as the sequence (P21802 whole entry, looked up) above, with N549H counted along it
Chain of HCK (human) (P08631 whole entry, looked up): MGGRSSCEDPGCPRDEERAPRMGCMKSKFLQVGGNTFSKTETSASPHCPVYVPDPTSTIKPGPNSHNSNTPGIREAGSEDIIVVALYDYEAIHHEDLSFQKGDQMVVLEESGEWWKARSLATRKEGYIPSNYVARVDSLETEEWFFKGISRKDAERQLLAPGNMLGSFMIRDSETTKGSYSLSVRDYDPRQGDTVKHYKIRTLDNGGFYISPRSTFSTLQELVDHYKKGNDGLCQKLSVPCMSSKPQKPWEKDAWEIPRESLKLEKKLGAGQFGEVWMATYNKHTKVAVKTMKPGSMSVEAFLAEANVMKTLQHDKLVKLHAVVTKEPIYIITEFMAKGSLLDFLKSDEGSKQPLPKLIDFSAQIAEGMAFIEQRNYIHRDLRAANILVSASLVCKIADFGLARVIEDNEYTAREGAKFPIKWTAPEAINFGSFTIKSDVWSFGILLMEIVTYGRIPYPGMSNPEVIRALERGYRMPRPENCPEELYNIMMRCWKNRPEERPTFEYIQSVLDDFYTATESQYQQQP

Work on `Cn1cc(-c2cnc3ccc4ccc(CS(=O)(=O)CCc5ccccn5)cc4c(=O)c3c2)cn1` yielded an inhibition ([1]; compound 0.1 µM) of 10.6%, an inhibition ([1]; compound 1.0 µM) of 13.9% and an inhibition ([2]; compound 0.1 µM) of 7.1%. For the same compound, the inhibition ([2]; compound 1.0 µM) was 4.4%, the inhibition (AURKB (human); compound 0.1 µM) was 10.5% and the inhibition (AURKB (human); compound 1.0 µM) was 34.7%. For the same compound, the inhibition (BRSK2 (human); compound 0.1 µM) was 1.5%, the inhibition (BRSK2 (human); compound 1.0 µM) was 2.5% and the inhibition (CAMK4 (human); compound 0.1 µM) was -0.1%. The inhibition (CAMK4 (human); compound 1.0 µM) was 3.5%, the inhibition (CHEK1 (human); compound 0.1 µM) was 2% and the inhibition (CHEK1 (human); compound 1.0 µM) was 2.5%. The inhibition (DYRK1A (human); compound 0.1 µM) was -4.6%, the inhibition (DYRK1A (human); compound 1.0 µM) was -2.8% and the inhibition (FGFR2 (human); compound 0.1 µM) was 18.3%. It also gave an inhibition (FGFR2 (human); compound 1.0 µM) of 64.7%, an inhibition ([3]; compound 0.1 µM) of 5.5% and an inhibition ([3]; compound 1.0 µM) of 15.5%. The inhibition (GSK3B (human); compound 0.1 µM) was -3.5%, the inhibition (GSK3B (human); compound 1.0 µM) was 3% and the inhibition (HCK (human); compound 0.1 µM) was -5.1%. For the same compound, the inhibition (HCK (human); compound 1.0 µM) was 1.6%, the inhibition (IKBKB (human); compound 0.1 µM) was 1.4% and the inhibition (IKBKB (human); compound 1.0 µM) was -1.2%. For the same compound, the inhibition (INSR (human); compound 0.1 µM) was 1.4%, the inhibition (INSR (human); compound 1.0 µM) was 3.5% and the inhibition (IRAK4 (human); compound 0.1 µM) was -12%. It also gave an inhibition (IRAK4 (human); compound 1.0 µM) of 4.2%, an inhibition (KDR (human); compound 0.1 µM) of 7.9% and an inhibition (KDR (human); compound 1.0 µM) of 28.2%. It also gave an inhibition (LCK (human); compound 0.1 µM) of 9.2%, an inhibition (LCK (human); compound 1.0 µM) of 0.5% and an inhibition (MAP4K4 (human); compound 0.1 µM) of -2%. For the same compound, the inhibition (MAP4K4 (human); compound 1.0 µM) was 10.6%, the inhibition (MAPK11 (human); compound 0.1 µM) was -11% and the inhibition (MAPK11 (human); compound 1.0 µM) was -1.8%. The inhibition (NEK2 (human); compound 0.1 µM) was -5.7%, the inhibition (NEK2 (human); compound 1.0 µM) was -0.9% and the inhibition (PAK2 (human); compound 0.1 µM) was -38.4%. For the same compound, the inhibition (PAK2 (human); compound 1.0 µM) was -0.3%, the inhibition (PDGFRA (human); compound 0.1 µM) was -13% and the inhibition (PIM1 (human); compound 0.1 µM) was -3.6%. The inhibition (PIM1 (human); compound 1.0 µM) was -16.7%, the inhibition (PRKACA (human); compound 0.1 µM) was -13.6% and the inhibition (PRKACA (human); compound 1.0 µM) was 2.4%. For the same compound, the inhibition (PRKCB1 (human); compound 1.0 µM) was 0.9%, the inhibition (PRKCE (human); compound 0.1 µM) was 6.5% and the inhibition (PRKCE (human); compound 1.0 µM) was 1.1%. The inhibition (PRKD2 (human); compound 0.1 µM) was -8.3%, the inhibition (PRKD2 (human); compound 1.0 µM) was -3.5% and the inhibition (RAF1 (human); compound 0.1 µM) was 5.1%. For the same compound, the inhibition (RAF1 (human); compound 1.0 µM) was 1.4%, the inhibition (ROCK2 (human); compound 0.1 µM) was -6.7% and the inhibition (ROCK2 (human); compound 1.0 µM) was -5.4%. The inhibition (RPS6KA1 KD1 KD2 (human); compound 0.1 µM) was -15.2%, the inhibition (RPS6KA1 KD1 KD2 (human); compound 1.0 µM) was -0.8% and the inhibition (RPS6KA3 KD1 KD2 (human); compound 0.1 µM) was -9.2%. For the same compound, the inhibition (RPS6KA3 KD1 KD2 (human); compound 1.0 µM) was -1.3%, the inhibition (SRC (human); compound 0.1 µM) was -0.3% and the inhibition (SRC (human); compound 1.0 µM) was 4.8%. The inhibition (SYK (human); compound 0.1 µM) was 1.2%, the inhibition (SYK (human); compound 1.0 µM) was -1.7% and the inhibition (TSSK1B (human); compound 0.1 µM) was 19.8%. It also gave an inhibition (TSSK1B (human); compound 1.0 µM) of -1.7% and an inhibition (TSSK2 (human); compound 1.0 µM) of -7.1%.

With `CN(c1ccc2ccc3ncc(-c4cnn(C)c4)cc3c(=O)c2c1)S(=O)(=O)NCc1ccccn1` the inhibition ([1]; compound 0.1 µM) was -1.8%, the inhibition ([1]; compound 1.0 µM) was 42.1% and the inhibition ([2]; compound 0.1 µM) was 3.3%. The inhibition ([2]; compound 1.0 µM) was 41.1%, the inhibition (AURKB (human); compound 0.1 µM) was 37.1% and the inhibition (AURKB (human); compound 1.0 µM) was 80.7%. The inhibition (BRSK2 (human); compound 0.1 µM) was -0.7%, the inhibition (BRSK2 (human); compound 1.0 µM) was 6.6% and the inhibition (CAMK4 (human); compound 0.1 µM) was -0.2%. For the same compound, the inhibition (CAMK4 (human); compound 1.0 µM) was 8%, the inhibition (CHEK1 (human); compound 0.1 µM) was 3.6% and the inhibition (CHEK1 (human); compound 1.0 µM) was 2.6%. It also gave an inhibition (DYRK1A (human); compound 0.1 µM) of 7.9%, an inhibition (DYRK1A (human); compound 1.0 µM) of 40.1% and an inhibition (FGFR2 (human); compound 0.1 µM) of 29.4%. The inhibition (FGFR2 (human); compound 1.0 µM) was 76.6%, the inhibition ([3]; compound 0.1 µM) was 16% and the inhibition ([3]; compound 1.0 µM) was 57.6%. The inhibition (GSK3B (human); compound 0.1 µM) was -6.8%, the inhibition (GSK3B (human); compound 1.0 µM) was 4.8% and the inhibition (HCK (human); compound 0.1 µM) was 9.4%. It also gave an inhibition (HCK (human); compound 1.0 µM) of 14.6%, an inhibition (IKBKB (human); compound 0.1 µM) of 10% and an inhibition (IKBKB (human); compound 1.0 µM) of 18.6%. The inhibition (INSR (human); compound 0.1 µM) was 3.4%, the inhibition (INSR (human); compound 1.0 µM) was -0.3% and the inhibition (IRAK4 (human); compound 0.1 µM) was 7%. It also gave an inhibition (IRAK4 (human); compound 1.0 µM) of 16.1%, an inhibition (KDR (human); compound 0.1 µM) of 33.2% and an inhibition (KDR (human); compound 1.0 µM) of 93.1%. It also gave an inhibition (LCK (human); compound 0.1 µM) of -3.5%, an inhibition (LCK (human); compound 1.0 µM) of 11.3% and an inhibition (MAP4K4 (human); compound 0.1 µM) of 18.6%. For the same compound, the inhibition (MAP4K4 (human); compound 1.0 µM) was 56.3%, the inhibition (MAPK11 (human); compound 0.1 µM) was -0.1% and the inhibition (MAPK11 (human); compound 1.0 µM) was -5.4%. The inhibition (NEK2 (human); compound 0.1 µM) was -6%, the inhibition (NEK2 (human); compound 1.0 µM) was -4.9% and the inhibition (PAK2 (human); compound 0.1 µM) was 10.2%. It also gave an inhibition (PAK2 (human); compound 1.0 µM) of 5.3%, an inhibition (PDGFRA (human); compound 0.1 µM) of -13.5% and an inhibition (PDGFRA (human); compound 1.0 µM) of 31.2%. The inhibition (PIM1 (human); compound 0.1 µM) was -2.7%, the inhibition (PIM1 (human); compound 1.0 µM) was 2.1% and the inhibition (PRKACA (human); compound 0.1 µM) was -11.5%. The inhibition (PRKACA (human); compound 1.0 µM) was -3.3%, the inhibition (PRKCB1 (human); compound 0.1 µM) was -7.7% and the inhibition (PRKCB1 (human); compound 1.0 µM) was 8.8%. It also gave an inhibition (PRKCE (human); compound 0.1 µM) of 8.8%, an inhibition (PRKCE (human); compound 1.0 µM) of 3.9% and an inhibition (PRKD2 (human); compound 0.1 µM) of 5.7%. It also gave an inhibition (PRKD2 (human); compound 1.0 µM) of -9.6%, an inhibition (RAF1 (human); compound 0.1 µM) of -6.5% and an inhibition (RAF1 (human); compound 1.0 µM) of -0.8%. The inhibition (ROCK2 (human); compound 0.1 µM) was 21.3%, the inhibition (ROCK2 (human); compound 1.0 µM) was 20.8% and the inhibition (RPS6KA1 KD1 KD2 (human); compound 0.1 µM) was -2.7%. It also gave an inhibition (RPS6KA1 KD1 KD2 (human); compound 1.0 µM) of 2.1%, an inhibition (RPS6KA3 KD1 KD2 (human); compound 0.1 µM) of -1.9% and an inhibition (RPS6KA3 KD1 KD2 (human); compound 1.0 µM) of 12.9%. It also gave an inhibition (SRC (human); compound 0.1 µM) of -3.2%, an inhibition (SRC (human); compound 1.0 µM) of 14.2% and an inhibition (SYK (human); compound 0.1 µM) of 8.7%. For the same compound, the inhibition (SYK (human); compound 1.0 µM) was 15.8%, the inhibition (TSSK1B (human); compound 0.1 µM) was -4.8% and the inhibition (TSSK1B (human); compound 1.0 µM) was 8.1%. The inhibition (TSSK2 (human); compound 0.1 µM) was -3.3% and the inhibition (TSSK2 (human); compound 1.0 µM) was -0.8%.
